This is an account of results in publication PMC9657749, “Cytotoxic Activity and Docking Studies of 2-arenoxybenzaldehyde N-acyl Hydrazone and 1,3,4-Oxadiazole Derivatives against Various Cancer Cell Lines” (Molecules, 2022).

Assay [1] deals with PC-3 (prostate adenocarcinoma) cells. In words: Cell Titer Glo cell viability assay, PC-3. As to conditions: PC-3, 48 h, 25-300 µM, triplicate, means. The format is cell-based, human. The protocol:
(§1) To determine the effect of N-acyl hydrazones and 2,5 substituted 1,3,4-oxadiazole derivatives, a dose-response curve was produced for each and every molecule based on the viability of A549 (lung carcinoma), PC-3 (prostate adenocarcinoma), and MDA-MB-231(breast adenocarcinoma) cancerous cell lines by using the Cell Titer Glo assay. The MRC-5 (lung fibroblast) cell line was used as the non-cancerous control group. For 48 h, the cytotoxic effects of novel derivatives on all of the cell lines were investigated in a dose-dependent manner.
(§2) In this study, four adherent cell lines were used: three from different cancer types and one from a regular fibroblast. The cancerous cells were human breast carcinoma (MDA-MB-231, ATCC code: HTB-26), human prostatic carcinoma (PC-3, ATCC code: CRL-1435), and human lung cancer epithelial cells (A549, ATCC code: CCL-185), while the fibroblasts in the control group were human fetal lung (MRC-5, ATCC code: CCL-171) cells. All cells were checked every few weeks for various sources of contamination.
(§3) […], MRC-5, and PC-3 cell lines were cultured in T75 flasks with high glucose DMEM medium (Pan Biotech, Aidenbach, Germany), and A549 cells were cultured with RPMI-1640 (Pan Biotech) containing 10% fetal bovine serum (Gibco, Waltham, MA, USA), 1% penicillin-streptomycin (Gibco), and 1% L-glutamine (Gibco) at 37 °C with 5% CO2. All the cells were removed from the flask with Trypsin/EDTA 0.25% (Gibco) when they reached 80% density.
(§4) To test the effect of different doses on cells, all types of cells were seeded into 96-well plates at a density of eight thousand cells in 100 µL volume per well. Cells were incubated at 37 °C with 5% CO2 for […]. After 24 h in the incubator, the medium on top of each well was discharged. All of the cells were treated with 25, 50, 100, 200, or 300 µM of fifteen N-acyl hydrazones and twelve 2,5-substituted 1,3,4-oxadiazole in a dose-increasing manner. Molecules were studied in triplicate for each concentration. To assess the viability of non-treated cells, a control group was placed in the setup with only cells and DMSO control treatments without any candidate molecules introduced. Plates were incubated for 48 h, and Cell Titer Glo reagent (Promega) was added on top of each well. Cells were then evaluated in terms of viability with the Cell Titer-Glo Luminescent Cell Viability Assay. Luminescence signals were detected with the SpectraMax i3x Multimode Detection Platform to obtain the cell viability percentages.
Background: ATP-based viability assays read luminescence as a measure of living cells.

The test system of assay [2] is A549 (lung carcinoma) cells. In words: Cell Titer Glo cell viability assay, A549. As to conditions: Homo sapiens, A549, 48 h, 25-300 µM, triplicate, means. The assay is classed as cell-based. The protocol:
as §1, §2, §3, §4

Assay [3] concerns MRC-5 (lung fibroblast) cells. In words: Cell Titer Glo cell viability assay, MRC-5 non-cancerous control. The assay is classed as cell-based. As to conditions: Homo sapiens, MRC5, MRC-5 non-cancerous fibroblasts, 48 h, 25-300 µM, triplicate, means. The protocol: as §1, §2, §3, §4
Assay [4] relates to MDA-MB-231 (breast adenocarcinoma) cells. In words: Cell Titer Glo cell viability assay, MDA-MB-231. The format is cell-based, human. The note with it: MDA-MB-231, 48 h, 25-300 µM, triplicate, means. The protocol:
as §1, §2, §3, §4

The test system of a further assay is A-549 cells. In words: Scratch assay (cell migration), A549. The assay is classed as cell-based, human. As to conditions: 55 µM 1d, 15 µM 1e, 15 µM 2a, 0, 24, 48 h. The protocol: (§5) The dosages for MDA-MB-231 were 40 µM for 1d, 120 µM for 1e, and 30 µM for 2a. The dosages for A-549 were 55 µM for 1d, 15 µM for 1e, and 15 µM for 2a. Three photos were taken: one immediately after the application, one 24 h later, and one 48 h later. The images of each time stamp for all three molecules can be seen in Figure 4 for the A549 cell line and Figure 5 for the MDA-MB-231 cell line.
(§6) To make comparisons, each application was performed in triplicate for all three molecules; the averages and standard deviations were calculated, and the p values were calculated by considering the sample sizes.
(§7) MDA-MB-231 and A-549 cells were seeded for the scratch assay. A total of 100.000 cells were cultured in 1.5 mL complete medium per well on a 6-well plate, as detailed above. The 6-well plates were then incubated for 24 h at 37 °C. After 24 h, accumulated cells were scraped out with the tip of a 200 µL pipette. After discarding the media on top of the cells, the cells were treated for 48 h with three molecules: 1d, 1e, and 2a.
(§8) The dosages for the MDA-MB-231 cell line were 40 µM for 1d, 120 µM for 1e, and 30 µM for 2a. The dosages for the A-549 cell line were 55 µM for 1d, 15 µM for 1e, and 15 µM for 2a.
(§9) The cell states were evaluated under the microscope, and markings were made to obtain photos from the same location during the follow-up. Images of the determined reference points were captured under the microscope immediately after treatment, 24 h later, and 48 h later.

A further assay relates to MDA-MB-231 cells. The assay can be described thus: Scratch assay (cell migration), MDA-MB-231. The format is cell-based, human. As to conditions: 40 µM 1d, 120 µM 1e, 30 µM 2a, 0, 24, 48 h. The protocol: as §5, §6, §7, §8, §9

The term IC50 denotes the concentration that inhibits the measured activity by half. High values mean lower potency, low ones higher potency. For the molecule `Clc1ccc(Oc2ccccc2-c2nnc(-c3cccnc3)o2)cc1` [2m], the half-maximal inhibitory concentration (IC50) in assay [1] (Homo sapiens, 48 h) was 124 µM; in assay [2] it was 137 µM; in assay [3], 124 µM; in assay [4] (Homo sapiens) it was 108 µM.
`O=C(N/N=C/c1ccccc1Oc1ccc(Cl)cc1)c1ccco1` [1n]: the IC50 in assay [1] (Homo sapiens, 48 h) is 30.4 µM; in assay [2], 39.4 µM; in assay [3], 50.6 µM; in assay [4] (Homo sapiens), 37.9 µM.
Taken in the same sequence, the figures for `O=C(N/N=C/c1ccccc1Oc1ccccc1)c1cccnc1` [1c] were 86 µM, 208 µM, 43.5 µM and 50.8 µM.
For `O=C(N/N=C/c1ccccc1Oc1ccccc1)c1ccc(Cl)cc1` [1b], in that order: 25.3 µM, 72.8 µM, 24.4 µM and 138 µM.
`c1ccc(Oc2ccccc2-c2nnc(-c3ccccc3)o2)cc1` [2a]: the IC50 in assay [1] (Homo sapiens, 48 h) came out at 66 µM; in assay [2] it was 29.3 µM; in assay [3], 74.5 µM; in assay [4] (Homo sapiens) it was 24 µM. Moreover, the “Antimetastatic effect / wound healing rate, scratch assay” value in the assay on A-549 cells and in the assay with MDA-MB-231 cells was “did not show a significant antimetastatic effect” in each case.
`Cc1nnsc1C(=O)N/N=C/c1ccccc1Oc1ccc(Cl)cc1` [1o]: the IC50 was determined as 27 µM in assay [1] (Homo sapiens, 48 h); 89.7 µM in assay [2]; 7.78 µM in assay [3]; 100 µM in assay [4] (Homo sapiens).
Taken in the same sequence, the figures for `Clc1ccc(Oc2ccccc2-c2nnc(-c3ccc(Cl)cc3)o2)cc1` [2l] were 38.4 µM, 36.3 µM, 51.9 µM and 22.7 µM.
For `Clc1ccc(Oc2ccccc2-c2nnc(-c3ccco3)o2)cc1` [2n], in that order: 25.6 µM, 28.8 µM, 35.6 µM and 30.4 µM.
Taken in the same sequence, the figures for `N#Cc1ccc(Oc2ccccc2-c2nnc(-c3ccco3)o2)cc1` [2i] were 41.4 µM, 72.9 µM, 23.1 µM and 23.1 µM.
As to `c1ccc(Oc2ccccc2-c2nnc(-c3ccco3)o2)cc1` [2d], the IC50 in assay [1] (Homo sapiens, 48 h) was determined as 54.3 µM; in assay [2], 102 µM; in assay [3] it was 40.1 µM; in assay [4] (Homo sapiens), 78.6 µM.
Taken in the same sequence, the figures for `O=C(N/N=C/c1ccccc1Oc1ccc(Cl)cc1)c1ccc(Cl)cc1` [1l] were 30.2 µM, 39.4 µM, 14.6 µM and 77.7 µM.
For `c1ccc(Oc2ccccc2-c2nnc(-c3cccnc3)o2)cc1` [2c], in that order: 121 µM, 109 µM, 12.8 µM and 42.6 µM.
For `N#Cc1ccc(Oc2ccccc2/C=N/NC(=O)c2cccnc2)cc1` [1h], in that order: 78.3 µM, 73 µM, 66.9 µM and 65.8 µM.
With `Clc1ccc(Oc2ccccc2-c2nnc(-c3ccccc3)o2)cc1` [2k], the IC50 is 65.8 µM in assay [1] (Homo sapiens, 48 h); 90 µM in assay [2]; 58.3 µM in assay [3]; 79.2 µM in assay [4] (Homo sapiens).
Take `Cc1nnsc1C(=O)N/N=C/c1ccccc1Oc1ccc(C#N)cc1` [1j]: the IC50 in assay [1] (Homo sapiens, 48 h) stood at 18.4 µM; in assay [2] it was 26.6 µM; in assay [3], 37.1 µM; in assay [4] (Homo sapiens), 25.9 µM.
For `O=C(N/N=C/c1ccccc1Oc1ccc(Cl)cc1)c1ccccc1` [1k], in that order: 46.4 µM, 122 µM, 66.9 µM and 32.7 µM.
With `N#Cc1ccc(Oc2ccccc2/C=N/NC(=O)c2ccccc2)cc1` [1f], the IC50 amounted to 65.9 µM in assay [1] (Homo sapiens, 48 h); 36.9 µM in assay [2]; 56.8 µM in assay [3]; 77.2 µM in assay [4] (Homo sapiens).
For `N#Cc1ccc(Oc2ccccc2/C=N/NC(=O)c2ccco2)cc1` [1i], in that order: 84.6 µM, 208 µM, 31.7 µM and 20.7 µM.
Taken in the same sequence, the figures for `N#Cc1ccc(Oc2ccccc2-c2nnc(-c3cccnc3)o2)cc1` [2h] were 78.2 µM, 78.6 µM, 23.1 µM and 38.2 µM.
For `O=C(N/N=C/c1ccccc1Oc1ccc(Cl)cc1)c1cccnc1` [1m], in that order: 38.1 µM, 71.8 µM, 37.9 µM and 55.5 µM.
Consider `N#Cc1ccc(Oc2ccccc2/C=N/NC(=O)c2ccc(Cl)cc2)cc1` [1g], for which the IC50 in assay [1] (Homo sapiens, 48 h) is 66.5 µM; in assay [2], 31.8 µM; in assay [3], 62.8 µM; in assay [4] (Homo sapiens), 45.1 µM.
In the case of `Clc1ccc(-c2nnc(-c3ccccc3Oc3ccccc3)o2)cc1` [2b], the IC50 in assay [1] (Homo sapiens, 48 h) worked out at 82.2 µM; in assay [2], 152 µM; in assay [3], 36 µM; in assay [4] (Homo sapiens), 46.9 µM.
Consider `O=C(N/N=C/c1ccccc1Oc1ccccc1)c1ccco1` [1d], for which the IC50 in assay [1] (Homo sapiens, 48 h) came to 9.39 µM; in assay [1], 9.39 µM; in assay [2] it was 49.8 µM; in assay [3], 44.7 µM; in assay [4] (Homo sapiens), 31.5 µM; in assay [4], 31.5 µM. The “Antimetastatic effect / wound healing rate, scratch assay” value in the assay with A-549 cells and in the assay with MDA-MB-231 cells was “did not show a significant antimetastatic effect” in each case.
As for `Cc1nnsc1C(=O)N/N=C/c1ccccc1Oc1ccccc1` [1e], the IC50 was determined as 18.1 µM in assay [1] (Homo sapiens, 48 h); 13.4 µM in assay [2]; 87 µM in assay [3]; 108 µM in assay [4] (Homo sapiens). Also, the “Antimetastatic effect / wound healing rate, scratch assay” value in the assay on A-549 cells and with MDA-MB-231 cells was “did not show a significant antimetastatic effect” throughout.
For `N#Cc1ccc(Oc2ccccc2-c2nnc(-c3ccc(Cl)cc3)o2)cc1` [2g], the IC50 in assay [1] (Homo sapiens, 48 h) was found to be 127 µM; in assay [2], 64.8 µM; in assay [3], 16 µM; in assay [4] (Homo sapiens), 55.7 µM.
For the molecule `O=C(N/N=C/c1ccccc1Oc1ccccc1)c1ccccc1` [1a], the IC50 in assay [1] (Homo sapiens, 48 h) amounted to 47.8 µM; in assay [2] it was 28.7 µM; in assay [3] it was 16.9 µM; in assay [4] (Homo sapiens) it was 53 µM.
Taken in the same sequence, the figures for `N#Cc1ccc(Oc2ccccc2-c2nnc(-c3ccccc3)o2)cc1` [2f] were 34.2 µM, 45.8 µM, 141 µM and 32.7 µM.
